{"source": "paper PMC5382548", "about": "(Scientific Reports, 2015)", "key": {"SW620 (metastatic colon)": {"system": "SW620 (metastatic colon)", "test": "MTS short-term cytotoxicity assay, SW620", "type": "cell-based", "conditions": "Homo sapiens, read-out: IC50 SW620", "experimental": "(§1) Short-term anti-proliferative assays were carried out by two different assays using a panel of human cancer and non-malignant human cell lines. […] The transformed human embryonic kidney cell line HEK293T (wt KRAS) was sensitive to all tested drugs, including TMPyP4, a cationic porphyrin established as a G4 ligand, as well as the anticancer drug 5-fluorouracil (5-FU).\n(§2) HCT116 human colon carcinoma cells, SW620 human colorectal adenocarcinoma and HEK293 T human embryonic kidney cells were grown in Dulbecco's modified Eagle's medium (DMEM) supplemented with 10% fetal bovine serum, and 1% antibiotic/antimycotic (Invitrogen, Grand Island, NY, USA) and maintained at 37°C in a humidified atmosphere of 5% CO2. Cells were seeded in 96 well plates at 5.000 cells/well. Twenty-four hours after cell plating, media was removed and replaced with fresh media containing test compounds and 5-FU (Sigma), a common cytotoxic agent used in colon cancer treatmen, or vehicle control (DMSO). Following 72 h of compound exposure, cell viability was evaluated using the CellTiter 96 AQueous Non-Radioactive Cell Proliferation Assay (Promega, Madison, WI, USA), using 3-(4,5-dimethylthiazol-2-yl)-5-(3-carboxymethoxyphenyl)-2-(4-sulfophenyl)-2H-tetrazolium, inner salt (MTS) as previously described. Cell viability data were expressed as mean ± SEM or mean ± SD from at least three independent experiments. IC50 and IC65 values were determined using GaphPad Prism v.5.00 (GraphPad Software). (Performed at Cell Function and Therapeutic Targeting Group, iMed.ULisboa)"}, "WI-38 (lung fibroblast)": {"system": "WI-38 (lung fibroblast)", "test": "SRB short-term cytotoxicity assay, WI-38", "type": "cell-based", "conditions": "Homo sapiens, 96 h", "experimental": "as §1\nHuman cell lines, breast carcinoma (MCF7), lung carcinoma (A549), pancreatic cancer (MIA PaCa2, Panc-1), immortalised telomerase-negative human lung fibroblast (ALT) and normal human lung fibroblast (WI-38), were all purchased from American Type Cell Culture (ATCC). Cell lines were maintained in appropriate medium supplemented with 10% fetal bovine serum (Invitrogen, UK), 2 mM L-glutamine (Invitrogen, Netherlands), and other components as specified by the suppliers. All cell lines were maintained at 37°C, 5% CO2, and routinely passaged. Short-term growth inhibition was measured using the SRB assay as described previously[43] (additional details described in Supplementary Information). […]\nSulforhodamine B (SRB) short-term cytotoxicity assay\nCells were seeded at appropriate densities into the wells of 96 well plates in their corresponding medium and incubated overnight to allow the cells to attach. Subsequently cells were exposed to various concentrations of freshly made solutions of drugs and incubated for 96 h. The cells were subsequently fixed with ice-cold trichloacetic acid (TCA) (10%, w/v) for 30 min and stained with 0.4% SRB dissolved in 1% acetic acid for 15 min.\nAll incubations were carried out at room temperature except for TCA fixation, which was at 4 °C. The IC50 value, the concentration required to inhibit cell growth by 50%, was determined from the mean absorbance at 540 nm for each drug concentration expressed as a percentage of the control untreated well absorbance. (Performed at School of Pharmacy, University College of London). […]\n(#sc-30/sc-126; Santa Cruz Biotechnology Inc., Santa Cruz, CA, USA). […]"}, "HCT116 (colon)": {"system": "HCT116 (colon)", "test": "MTS short-term cytotoxicity assay, HCT116", "type": "cell-based, human", "experimental": "as §1, §2"}, "KRAS21R G4": {"system": "KRAS21R G4", "test": "FRET melting assay, KRAS21R G4", "type": "binding, human", "conditions": "G4 0.2 μM, ligand 1 μM, K-cacodylate buffer pH 7.4, 60 mM K+", "experimental": "Fluorescence resonance energy transfer (FRET) studies with DNA sequences labelled at the 5′ and 3′ ends, were conducted to evaluate the G4 DNA stabilizing properties of IQcs (at 0.1 to 5 μM ligand concentrations). The G4-forming sequence KRAS21R[11], together with T-loop, a 26-mer hairpin double-stranded DNA (ds-DNA) sequence were used in the first screening assay. Reproducible IQc dose-dependent melting curves (Sup. Inf.; Figure S3) and stabilization temperature (ΔTm) values were obtained (Figure 2 and Table S5).\nFigure 2 FRET stabilization temperatures (ΔTm) of KRAS21R G4 and hairpin ds-DNA (T-loop) at 0.2 μM, in K-cacodylate buffer (pH = 7.4, 60 mM K^+), stabilized by IQc derivatives and TMPyP4 at 1 μM. ^a) SD ≤ 0.2°C. TEXT PRINTED IN THE PICTURE: TMPyP4: ΔTm / °C ^a) (T-Loop): 16.0; ΔTm / °C ^a) (KRAS21R): 25.1 | 3e: ΔTm / °C ^a) (T-Loop): 6.5; ΔTm / °C ^a) (KRAS21R): 22.0 | 3d: ΔTm / °C ^a) (T-Loop): 5.6; ΔTm / °C ^a) (KRAS21R): 19.9 | 2d: ΔTm / °C ^a) (T-Loop): 6.1; ΔTm / °C ^a) (KRAS21R): 15.1 | 2a: ΔTm / °C ^a) (T-Loop): 1.5; ΔTm / °C ^a) (KRAS21R): 4.4 […]\nOligonucleotide sequences were purchased from Eurofins MWG Synthesis GmbH, Germany or STAB VIDA Genomics Lab, Caparica, Lisbon, Portugal. The labelled oligonucleotides used in the FRET assays had attached the donor fluorophore FAM (6-carboxyfluorescein) and the acceptor fluorophore TAMRA (6-carboxytetramethylrhodamine): KRAS21R: 5′-FAM-[…]-TAMRA-3′; KRAS32R: 5′-FAM-[…]-TAMRA-3′; UTR-1: 5′-FAM-GCGGCGGCGGAGG-TAMRA-3′; UTR-2: 5′-FAM-[…]-TAMRA-3; T-Loop:5′-FAM-[…]-TAMRA-3′; F21T: 5′-FAM-[…]-TAMRA-3′. Non-labelled oligonucleotides were used in FRET competition assays and in the spectroscopic studies: ds26: - d(5′-CAATCGGATCGAATT CGATCCGATTG-3′); KRAS21R: 5′-[…]-3′; HT21: 5′-[…]-3′. Each oligonucleotide was initially diluted to a storage solution at 100 μM in nuclease-free water (not DEPC-treated), purchased from Ambion Applied Biosystems UK.\nThe ability of indolo[3,2-c]quinolines to stabilize DNA sequences was investigated using a Fluorescence Resonance Energy Transfer (FRET) assay as reported elsewhere.\nFigure S3 (cont.)| Concentration-dependent (0.1, 0.5, 1, 2, 3, 4 and 5 µM) FRET melting profiles of G4 structures and T-loop DNA with indolo[3,2-c]quinoline derivatives 1a, 2a-g and 3d-j in K-cacodylate buffer (pH 7.4, 60 mM K+). […]\nTable S5 | FRET stabilization temperatures (ΔTm) of G4s sequences and ds-DNA (0.2 µM) stabilized by […]"}, "[1]": {"conditions": "Homo sapiens, HCT-116, MTS assay, 72 h, read-out: IC50 HCT116"}}, "note": "Like-named read-outs stand apart in the source and are kept apart here."}
{"compound": "Cn1cc2c3ccccc3nc-2c2cc(Br)ccc21", "note": "[2a, 2-bromo-5-methyl-indolo[3,2-c]quinoline]", "values": [{"measurement": "IC50", "setting": "SW620 (metastatic colon); SW-620, MTS assay, 72 h", "result": 0.2, "unit": "µM"}, {"measurement": "IC50", "setting": "WI-38 (lung fibroblast)", "result": 6.26, "unit": "µM"}, {"measurement": "IC50", "setting": "HCT116 (colon); [1]", "result": 0.14, "unit": "µM"}]}
{"compound": "CCN(CC)CCCNc1ccc2c(c1)c1[nH]c3ccccc3c1c[n+]2C", "note": "[2d]", "values": [{"measurement": "IC50", "setting": "SW620 (metastatic colon); SW-620, MTS assay, 72 h", "result": 0.59, "unit": "µM"}, {"measurement": "IC50", "setting": "WI-38 (lung fibroblast)", "result": 4.86, "unit": "µM"}, {"measurement": "FRET stabilization temperature ΔTm (KRAS21R)", "setting": "KRAS21R G4", "result": 15.1, "unit": "°C"}, {"measurement": "IC50", "setting": "HCT116 (colon); [1]", "result": 0.46, "unit": "µM"}]}
{"compound": "CCN(CC)CCCNc1ccc2[nH]c3c(c[n+](C)c4ccc(NCCCN(CC)CC)cc34)c2c1.[Cl-]", "note": "[3d]", "values": [{"measurement": "IC50", "setting": "SW620 (metastatic colon); SW-620, MTS assay, 72 h", "result": 4.74, "unit": "µM"}, {"measurement": "FRET stabilization temperature ΔTm (KRAS21R)", "setting": "KRAS21R G4", "result": 19.9, "unit": "°C"}, {"measurement": "IC50", "setting": "HCT116 (colon); [1]", "result": 3.46, "unit": "µM"}]}
{"compound": "CCN(CC)CCCNc1ccc2c(c1)[nH]c1c2c[n+](C)c2ccc(NCCCN(CC)CC)cc12.[Cl-]", "note": "[3e]", "values": [{"measurement": "IC50", "setting": "SW620 (metastatic colon); SW-620, MTS assay, 72 h", "result": 1.79, "unit": "µM"}, {"measurement": "IC50", "setting": "WI-38 (lung fibroblast)", "result": 10.1, "unit": "µM"}, {"measurement": "FRET stabilization temperature ΔTm (KRAS21R)", "setting": "KRAS21R G4", "result": 22.0, "unit": "°C"}, {"measurement": "IC50", "setting": "HCT116 (colon); [1]", "result": 1.8, "unit": "µM"}]}
{"compound": "C[n+]1ccc(-c2c3nc(c(-c4cc[n+](C)cc4)c4ccc([nH]4)c(-c4cc[n+](C)cc4)c4ccc([nH]4)c(-c4cc[n+](C)cc4)c4nc2C=C4)C=C3)cc1", "note": "[TMPyP4, reference compound]", "values": [{"measurement": "IC50", "setting": "SW620 (metastatic colon); SW-620, 72 h", "result": "> 20", "unit": "µM"}, {"measurement": "FRET stabilization temperature ΔTm (KRAS21R)", "setting": "KRAS21R G4", "result": 25.1, "unit": "°C"}, {"measurement": "IC50", "setting": "HCT116 (colon); Homo sapiens, HCT-116, 72 h, read-out: IC50 HCT116, MTS assay, 72 h", "result": 12.3, "unit": "µM"}, {"measurement": "IC50", "setting": "HCT116 (colon); read-out: IC50 HCT116, MTS assay, 72 h", "result": 12.4, "unit": "µM"}]}
